Patent publication US20250163104A1, “MACROCYCLIC IMMUNOMODULATORS” (priority 2021, published 2025)
Where a SMILES comes first, the peptide text is derived from it. Bridges are numbered along the chain shown (N, C = ends). [ ]: non-standard residue; d: D form. The star is where a group is joined. ξ: configuration not given here. Phe(4-COOH) = N[C@@H](Cc1ccc(C(=O)O)cc1)C(=O)O; Bip = N[C@@H](Cc1ccc(-c2ccccc2)cc1)C(=O)O; Phe(4-NH2) = Nc1ccc(C[C@H](N)C(=O)O)cc1; Phe(3-Me) = Cc1cccc(C[C@H](N)C(=O)O)c1; Phe(4-Me) = Cc1ccc(C[C@H](N)C(=O)O)cc1; Val(3-OH) = CC(C)(O)[C@H](N)C(=O)O; 3Pal = N[C@@H](Cc1cccnc1)C(=O)O; 4Pal = N[C@@H](Cc1ccncc1)C(=O)O; Cha = N[C@@H](CC1CCCCC1)C(=O)O; Cit = NC(=O)NCCC[C@H](N)C(=O)O; Thr(3ξ) = CC(O)[C@H](N)C(=O)O; Carboxymethyl = O=C(O)C*; Orn = NCCC[C@H](N)C(=O)O; Pra = C#CC[C@H](N)C(=O)O; Dab = NCC[C@H](N)C(=O)O; Dap = NC[C@H](N)C(=O)O; Ac3c = NC1(C(=O)O)CC1

The molecules below were run against T1, human PD-1 / PD-L1-Ig binding on Jurkat cell line over-expressing human PD-1 (Jurkat-PD-1) (Homo sapiens, UniProt Q15116) (assay: Jurkat-PD-1 Cell Binding High-Content Screening Assay (CBA)). Conditions: Jurkat-PD-1 cells, PE-labeled PD-L1-Ig 20 nM final; read-out: Jurkat HPD1_PDL1 IC50.
T1 construct: expressed in transfected cells; host or cells: Jurkat
Type: cell-based
Procedure, shortened: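 Read-out: high-content imaging of PE-tagged PD-L1-Ig bound to Jurkat cells overexpressing human PD-1, after fixation with 4% paraformaldehyde and Hoechst 33342 nuclear staining. Ligand was used at 20 nM final for 1 hour, after a 2 h compound exposure at 37° C in serum-containing DMEM.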

T1 sequence (Q15116 25-288): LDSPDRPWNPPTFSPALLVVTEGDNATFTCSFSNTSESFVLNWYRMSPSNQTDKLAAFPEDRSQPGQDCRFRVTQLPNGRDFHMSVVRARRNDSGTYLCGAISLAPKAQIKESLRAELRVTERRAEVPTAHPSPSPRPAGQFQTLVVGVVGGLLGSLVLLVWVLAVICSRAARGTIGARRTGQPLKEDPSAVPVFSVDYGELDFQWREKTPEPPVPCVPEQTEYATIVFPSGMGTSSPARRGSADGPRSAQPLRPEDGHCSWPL

| IC50 [nM] | Structure (SMILES) |
| --- | --- |
| 9.9 | CC(C)C[C@H]1NC(=O)[C@H](CCCN)NC(=O)[C@H](CCC(=O)O)NC(=O)[C@H](Cc2ccc(-c3ccccc3)cc2)NC(=O)[C@H](C(C)C)NC(=O)[C@H](Cc2c[nH]c3ccccc23)NC(=O)[C@H](CC(=O)O)NC(=O)[C@H](Cc2ccncc2)NC(=O)[C@H](Cc2ccc(OCC(=O)O)cc2)NC(=O)CSC[C@@H](C(=O)N[C@@H](C)C(N)=O)NC(=O)[C@H]([C@@H](C)O)NC(=O)[C@H](C(C)C)NC(=O)[C@H](CC2CCCCC2)NC(=O)[C@H](CCN)NC1=O [Compound 1423] |
| 19.6 | CC(C)C[C@H]1NC(=O)[C@H](CCCN)NC(=O)[C@H](CCC(=O)O)NC(=O)[C@H](Cc2ccc(-c3ccccc3)cc2)NC(=O)[C@H](C(C)C)NC(=O)[C@H](Cc2c[nH]c3ccccc23)NC(=O)[C@H](CC(=O)O)NC(=O)[C@H](Cc2ccc(-c3ccc(C(=O)O)cc3)cc2)NC(=O)[C@H](Cc2ccc(OCC(=O)O)cc2)NC(=O)CSC[C@@H](C(=O)N[C@@H](C)C(N)=O)NC(=O)[C@H]([C@@H](C)O)NC(=O)[C@H](C(C)C)NC(=O)[C@H](CC2CCCCC2)NC(=O)[C@H](CCN)NC1=O [Compound 2168] |
| 17.6 | CC(C)C[C@H]1NC(=O)[C@H](CCCN)NC(=O)[C@H](C(C)C)NC(=O)[C@H](Cc2ccc(-c3ccccc3)cc2)NC(=O)[C@H](C(C)C)NC(=O)[C@H](Cc2c[nH]c3ccccc23)NC(=O)[C@H](CC(=O)O)NC(=O)[C@H](Cc2ccc(OCC(=O)O)cc2)NC(=O)[C@H](C(C)O)NC(=O)CSC[C@@H](C(=O)N[C@@H](CO)C(=O)O)NC(=O)[C@H](C(C)O)NC(=O)[C@H](C(C)C)NC(=O)[C@H](CC2CCCCC2)NC(=O)[C@H](CCN)NC1=O (stereo partly drawn) [Compound 2603] ({CH2CO}-[Thr(3ξ)]Y(Carboxymethyl)DWV[Bip]V[Orn][dL][Dab][Cha]V[Thr(3ξ)]CS-OH; thioether N-14) |
| 14.9 | CC(C)C[C@H]1NC(=O)[C@H](CCCN)NC(=O)[C@H](CCCNC(N)=O)NC(=O)[C@H](Cc2ccc(-c3ccccc3)cc2)NC(=O)[C@H](CC2CCCCC2)NC(=O)[C@H](Cc2c[nH]c3ccccc23)NC(=O)[C@H](CC(=O)O)NC(=O)[C@H](Cc2ccc(OCC(=O)O)cc2)NC(=O)[C@H](CN)NC(=O)CSC[C@@H](C(=O)N[C@@H](C)C(N)=O)NC(=O)[C@H]([C@@H](C)O)NC(=O)[C@H](C(C)C)NC(=O)[C@H](CC2CCCCC2)NC(=O)[C@H](CCN)NC1=O [Compound 1361] ({CH2CO}-[Dap]Y(Carboxymethyl)DW[Cha][Bip][Cit][Orn][dL][Dab][Cha]VTCA-NH2; thioether N-14) |
| 305 | Cc1ccc(C[C@@H]2NC(=O)[C@H](CCN)NC(=O)[C@@H](CC(C)C)NC(=O)[C@H](CCCN)NC(=O)[C@H](CCC(=O)O)NC(=O)[C@H](Cc3ccc(-c4ccccc4)cc3)NC(=O)[C@H](C(C)C)NC(=O)[C@H](Cc3c[nH]c4ccccc34)NC(=O)[C@H](CC(=O)O)NC(=O)[C@H](Cc3ccc(OCC(=O)O)cc3)NC(=O)[C@H](CN)NC(=O)CSC[C@@H](C(=O)N[C@@H](C)C(N)=O)NC(=O)[C@H]([C@@H](C)O)NC(=O)[C@H](C(C)C)NC2=O)cc1 [Compound 1471] ({CH2CO}-[Dap]Y(Carboxymethyl)DWV[Bip]E[Orn][dL][Dab][Phe(4-Me)]VTCA-NH2; thioether N-14) |
| 18.1 | CC(C)C[C@H]1NC(=O)[C@H](CCCN)NC(=O)[C@H](C(C)C)NC(=O)[C@H](Cc2ccc(-c3ccccc3)cc2)NC(=O)[C@H](C(C)C)NC(=O)[C@H](Cc2ccc(N)cc2)NC(=O)[C@H](CC(=O)O)NC(=O)[C@H](Cc2ccc(OCC(=O)O)cc2)NC(=O)[C@H](CN)NC(=O)CSC[C@@H](C(=O)N[C@@H](CCN)C(N)=O)NC(=O)[C@H](CCCCN)NC(=O)[C@H](C(C)C)NC(=O)[C@H](CC2CCCCC2)NC(=O)[C@H](CCN)NC1=O [Compound 2032] ({CH2CO}-[Dap]Y(Carboxymethyl)D[Phe(4-NH2)]V[Bip]V[Orn][dL][Dab][Cha]VKC[Dab]-NH2; thioether N-14) |

More lines, now with the values behind:

| Structure (SMILES) | IC50 [nM] |
| --- | --- |
| CC(C)C[C@@H]1NC(=O)[C@H](CCN)NC(=O)[C@@H](CC(C)C)NC(=O)[C@H](CCCN)NC(=O)[C@H](C(C)C)NC(=O)[C@H](Cc2ccc(-c3ccccc3)cc2)NC(=O)[C@H](C(C)C)NC(=O)[C@H](Cc2c[nH]c3ccccc23)NC(=O)[C@H](CC(=O)O)NC(=O)[C@H](Cc2ccc(O)cc2)NC(=O)[C@H](Cc2cccnc2)NC(=O)CSC[C@@H](C(=O)N[C@@H](C)C(N)=O)NC(=O)[C@H]([C@@H](C)O)NC(=O)[C@H](C(C)C)NC1=O [Compound 1050] ({CH2CO}-[3Pal]YDWV[Bip]V[Orn][dL][Dab]LVTCA-NH2; thioether N-14) | 9.9 |
| C#CC[C@H](NC(=O)[C@H](CCN)NC(=O)[C@@H]1CSCC(=O)N[C@@H](CCN)C(=O)N[C@@H](Cc2ccc(C(=O)O)cc2)C(=O)N[C@@H](CC(=O)O)C(=O)N[C@@H](Cc2cccc(C)c2)C(=O)N[C@@H](Cc2ccc(C(=O)O)cc2)C(=O)N[C@@H](Cc2ccc(-c3ccccc3)cc2)C(=O)N[C@@H](Cc2ccc(C(=O)O)cc2)C(=O)N[C@@H](CCCN)C(=O)N[C@H](CC(C)C)C(=O)N[C@@H](CCN)C(=O)N[C@@H](CC2CCCCC2)C(=O)N[C@@H](C(C)(C)O)C(=O)N[C@@H](CO)C(=O)N1)C(N)=O [Compound 2088] ({CH2CO}-[Dab][Phe(4-COOH)]D[Phe(3-Me)][Phe(4-COOH)][Bip][Phe(4-COOH)][Orn][dL][Dab][Cha][Val(3-OH)]SC[Dab][Pra]-NH2; thioether N-14) | 4.4 |
| CC(C)C[C@@H]1NC(=O)[C@H](CCN)NC(=O)[C@@H](CC(C)C)NC(=O)[C@H](CCN)NC(=O)[C@H](CCCNC(=N)N)NC(=O)[C@H](Cc2ccc(-c3ccccc3)cc2)NC(=O)[C@H](C(C)C)NC(=O)[C@H](Cc2c[nH]c3ccccc23)NC(=O)[C@H](CC(=O)O)NC(=O)[C@H](Cc2ccc(O)cc2)NC(=O)[C@H](CC(N)=O)NC(=O)CSC[C@@H](C(=O)N[C@@H](C)C(N)=O)NC(=O)[C@H]([C@@H](C)O)NC(=O)[C@H](C(C)C)NC1=O [Compound 1004] ({CH2CO}-NYDWV[Bip]R[Dab][dL][Dab]LVTCA-NH2; thioether N-14) | 53.2 |
| Cc1cccc(C[C@@H]2NC(=O)[C@H](CC(=O)O)NC(=O)[C@H](Cc3ccc(C(=O)O)cc3)NC(=O)[C@H](C(C)O)NC(=O)CSC[C@@H](C(=O)N[C@@H](CCN)C(N)=O)NC(=O)[C@H](Cc3cnc[nH]3)NC(=O)[C@H](C(C)(C)O)NC(=O)[C@H](CC3CCCCC3)NC(=O)[C@H](CCN)NC(=O)[C@@H](CC(C)C)NC(=O)[C@H](CCCN)NC(=O)[C@H](Cc3ccc(OCC(=O)O)cc3)NC(=O)[C@H](Cc3ccc(-c4ccccc4)cc3)NC(=O)[C@H](Cc3ccc(OCC(=O)O)cc3)NC2=O)c1 (stereo partly drawn) [Compound 2683] ({CH2CO}-[Thr(3ξ)][Phe(4-COOH)]D[Phe(3-Me)]Y(Carboxymethyl)[Bip]Y(Carboxymethyl)[Orn][dL][Dab][Cha][Val(3-OH)]HC[Dab]-NH2; thioether N-14) | 1.9 |
| Cc1cccc(C[C@@H]2NC(=O)[C@H](CC(=O)O)NC(=O)[C@H](Cc3ccc(OCC(=O)O)cc3)NC(=O)[C@H](CN)NC(=O)CSC[C@@H](C(N)=O)NC(=O)[C@H](CC(N)=O)NC(=O)[C@H](C(C)C)NC(=O)[C@H](CC3CCCCC3)NC(=O)[C@H](CCN)NC(=O)[C@@H](CC(C)C)NC(=O)[C@H](CCCN)NC(=O)[C@H](Cc3ccc(OCC(=O)O)cc3)NC(=O)[C@H](Cc3ccc(-c4ccccc4)cc3)NC(=O)[C@H](Cc3ccc(OCC(=O)O)cc3)NC2=O)c1 [Compound 1780] ({CH2CO}-[Dap]Y(Carboxymethyl)D[Phe(3-Me)]Y(Carboxymethyl)[Bip]Y(Carboxymethyl)[Orn][dL][Dab][Cha]VNC-NH2; thioether N-14) | 11.3 |
| Cc1cccc(C[C@@H]2NC(=O)[C@H](CC(=O)O)NC(=O)[C@H](Cc3ccc(OCC(=O)O)cc3)NC(=O)[C@H]([C@@H](C)O)NC(=O)CSC[C@@H](C(N)=O)NC(=O)[C@H](CCC(N)=O)NC(=O)[C@H](C(C)C)NC(=O)[C@H](CC3CCCCC3)NC(=O)[C@H](CCN)NC(=O)[C@@H](CC(C)C)NC(=O)[C@H](CCCN)NC(=O)[C@H](Cc3ccc(OCC(=O)O)cc3)NC(=O)[C@H](Cc3ccc(-c4ccccc4)cc3)NC(=O)[C@H](Cc3ccc(OCC(=O)O)cc3)NC2=O)c1 [Compound 1799] ({CH2CO}-TY(Carboxymethyl)D[Phe(3-Me)]Y(Carboxymethyl)[Bip]Y(Carboxymethyl)[Orn][dL][Dab][Cha]VQC-NH2; thioether N-14) | 33.5 |
| Cc1cccc(C[C@@H]2NC(=O)[C@H](CC(=O)O)NC(=O)[C@H](Cc3ccc(OCC(=O)O)cc3)NC(=O)[C@H](CN)NC(=O)CSC[C@@H](C(N)=O)NC(=O)[C@H](CCCN)NC(=O)[C@H](C(C)C)NC(=O)[C@H](CC3CCCCC3)NC(=O)[C@H](CCN)NC(=O)[C@@H](CC(C)C)NC(=O)[C@H](CCCN)NC(=O)[C@H](Cc3ccc(OCC(=O)O)cc3)NC(=O)[C@H](Cc3ccc(-c4ccccc4)cc3)NC(=O)[C@H](Cc3ccc(OCC(=O)O)cc3)NC2=O)c1 [Compound 1779] ({CH2CO}-[Dap]Y(Carboxymethyl)D[Phe(3-Me)]Y(Carboxymethyl)[Bip]Y(Carboxymethyl)[Orn][dL][Dab][Cha]V[Orn]C-NH2; thioether N-14) | 16.6 |
| Cc1cccc(C[C@@H]2NC(=O)[C@H](CC(=O)O)NC(=O)[C@H](Cc3ccc(OCC(=O)O)cc3)NC(=O)[C@H](Cc3ccncc3)NC(=O)CSC[C@@H](C(=O)N[C@@H](CCN)C(N)=O)NC(=O)[C@H](CO)NC(=O)[C@H](C(C)(C)O)NC(=O)[C@H](CC3CCCCC3)NC(=O)[C@H](CCN)NC(=O)[C@@H](CC(C)C)NC(=O)C3(CC3)NC(=O)[C@H](Cc3ccc(OCC(=O)O)cc3)NC(=O)[C@H](Cc3ccc(-c4ccccc4)cc3)NC(=O)[C@H](Cc3ccc(OCC(=O)O)cc3)NC2=O)c1 [Compound 2082] ({CH2CO}-[4Pal]Y(Carboxymethyl)D[Phe(3-Me)]Y(Carboxymethyl)[Bip]Y(Carboxymethyl)[Ac3c][dL][Dab][Cha][Val(3-OH)]SC[Dab]-NH2; thioether N-14) | 111 |
